Entries after “also recorded” stand apart in the source; their conditions may differ. Read-outs that look alike come from different tables or passages of the source.
Assays:
Recombinant JAK1 = biological target: T1, Recombinant JAK1 (Homo sapiens, UniProt P23458); test: In vitro enzyme assay (Cisbio kinase assay), JAK1; type: biochemical; conditions: ATP 300 μM; read-out: Enzymatic assay: IC50 JAK1
T1 construct: purchased Life Technologies PV4775

[1] = test system: IL-6 induced pSTAT3 in TF-1 cells; test: In vitro cellular pSTAT3 assay, IL-6 stimulated TF-1 cells; type: cell-based; conditions: Homo sapiens
Description: . The flasks were incubated overnight at 37° C., 5% CO2 then seeded in 96 well plates (TPP) at 150000 cells/well in 25 μL. Cells were treated with 5 IL/well of serially diluted compounds in DMSO (final DMSO concentration of 0.1%) and incubated for 30 min at 37° C. IL-6 (6 IL/well, 100 ng/ml as a final concentration in Opti-MEM, Thermofisher, PHC0066) was added to the cell plates and followed by a 30-min incubation at 37° C. Next, cells were lysed by adding 12 μl/well of 4× supplemented lysis buffer, incubated at 4° C. for 30 min under agitation. The samples were processed for the pSTAT3 detection as described by the manufacturer (MSD) with 25 μl of non-diluted cell lysates tested. Compounds were tested in simplicates over 10 three-step dilutions in order to determine their IC50 values.

SF logD = type: physicochemical
[2] = Protein binding analysis (RED), human plasma; type: in vitro ADME; conditions: 5 μM
Description: The protein binding was assessed in plasma of Human, male balb-c mice, male Wistar Han rat, male Göttingen minipig by rapid equilibrium dialysis (RED) devices. After the plasma and buffer phosphate 50 mM pH7.4 were equilibrated at 37° C., the compound was added to plasma to reach a final concentration of 5 μM. An aliquot of plasma was withdrawn immediately. Equilibration under mild agitation was continued for 4 h. The plasma and buffer were sampled and samples were quenched with 4 volumes of acetonitrile and centrifuged. Supernatant was quantified in HPLC/MS/MS to calculate the recovery and the percentage of compound dissolved in the buffer (unbound) and bound to plasma proteins.

[3] = Intrinsic clearance in hepatocytes, rat; type: in vitro ADME, male Wistar Han rats; conditions: 2.5 μM
Description: (§1) The intrinsic clearance was assessed in cryopreserved Hepatocytes obtained by Human livers donors of mix gender pooled together, male balb-c mouse, male Wistar Han rats and male Göttingen minipig, by looking at the parent compound disappearance. The incubations were performed using a final concentration of viable cells of 1 million/ml (viability above 70%) and test item of 2.5 μM. Incubations were followed up to 2 h. Aliquotes were withdrawn at different time points and reaction quenched with acetonitrile. After centrifugation the supernatant was analyzed by HPLC/MS to quantify the remaining amount of parent in comparison with time 0. The clearance was calculated by fitting the log of the percentage remaining with Graphpad Prism ver.7.

[4] = Intrinsic clearance in hepatocytes, mouse; type: in vitro ADME, male balb-c mouse; conditions: 2.5 μM
Description: as §1

[5] = In vivo pharmacokinetic analysis in minipig (iv); design: species or system male Göttingen minipigs; conditions: iv 1 mg/kg
Description: Three male Göttingen minipigs. Compound was administered intravenously to fed animals at a target dose of 1 mg/kg, dose volume 1 mL/kg, in DMSO: hydroxypropyl-p-cyclodextrin 20% in phosphate buffer 60 mM pH 7 (5:95). Blood samples were collected at various time points. Blood samples were then assayed using a method based upon protein precipitation with acetonitrile followed by LC/MS/MS analysis. Non-compartmental methods were used for pharmacokinetic analysis of blood concentration versus time data.

CYP2D6 = biological target: T2, CYP2D6 (Homo sapiens, UniProt P10635); test: CYP2D6 inhibition in human liver microsomes; type: in vitro ADME; conditions: dextromethorphan, CRL data
T2 construct: Human pooled liver microsomes of mixed gender (mainly Caucasian); from tissue; host or cells: pooled human liver microsomes
T2 sequence (P10635 whole entry): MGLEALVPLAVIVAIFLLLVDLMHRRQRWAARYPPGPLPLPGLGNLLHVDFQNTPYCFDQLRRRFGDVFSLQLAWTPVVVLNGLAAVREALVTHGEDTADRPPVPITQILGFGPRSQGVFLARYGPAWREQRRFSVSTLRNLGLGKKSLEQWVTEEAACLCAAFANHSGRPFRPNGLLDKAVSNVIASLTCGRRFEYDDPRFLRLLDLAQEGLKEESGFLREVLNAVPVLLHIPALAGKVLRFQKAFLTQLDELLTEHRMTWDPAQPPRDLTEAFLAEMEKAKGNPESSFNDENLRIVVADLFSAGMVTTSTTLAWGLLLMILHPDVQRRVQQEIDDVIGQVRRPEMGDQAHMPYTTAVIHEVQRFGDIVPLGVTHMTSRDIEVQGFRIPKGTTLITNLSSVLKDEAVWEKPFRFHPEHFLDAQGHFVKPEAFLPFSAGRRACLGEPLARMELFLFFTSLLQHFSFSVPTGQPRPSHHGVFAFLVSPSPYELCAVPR
Description: After 5 min at 37° C. incubations were started with NADPH and prolonged for 10 min. The test compound was tested up to 30 μM keeping the final concentration of organic solvent was below 0.5%. The final concentration of microsomes was 0.1 mg/ml to ensure linearity during the time of the incubation. The reaction was quenched by adding 3 volume of acetonitrile. After centrifugation the supernatant was analyzed by HPLC/MS/MS for the formation of des-methyldextromethorphane selectively produced by CYP2D6 and 1′hydroxymidazolam or 6p-hydroxytestosterone, selectively produced by CYP3A. IC50 was calculated with Graphpad Prism v.7 comparing the amount of metabolite produced in presence of the test compound with that produced in absence of test item.

[6] = test system: Salmonella typhimurium TA98 and TA100; test: Mini Ames assay (TA98 and TA100); type: cell-based; conditions: TA98 & TA100, with and without metabolic activation (S9)
From the text: The Ames test in micro-method (in 6-well plates=mini Ames) follows the general principles of the standard Ames's technique. The Ames test used strains of bacteria Salmonella typhimurium that carry mutations in the genes involved in histidine synthesis. These strains are auxotrophic mutants, they require histidine for growth but cannot produce it. The assay was used to observe the ability of the test item to induce reverse mutations allowing the bacteria to grow in a histidine-free medium. The number of bacteria that revert and acquire the wild-type ability to grow in the absence of histidine can be estimated by counting the colonies that develop upon incubation. The use of different strains allows the identification of different mechanisms of gene mutation (TA98 for detection of frameshift mutations and TA100 for detection of base pair substitutions). […]
A toxicity assessment was performed on complete nutriment agar plate (with histidine) to define the highest concentration to be used in the genotoxicity assay. […] The first concentration analyzed in the well (6-well plate) was 500 μg per plate followed by 7 serial dilutions (2 times factor of dilution). […] The viability of the positive and negative controls was analyzed for each strain, in the presence or absence of metabolic activation system, and were compared with historical data to validate the study. […]

T1 sequence (P23458 whole entry): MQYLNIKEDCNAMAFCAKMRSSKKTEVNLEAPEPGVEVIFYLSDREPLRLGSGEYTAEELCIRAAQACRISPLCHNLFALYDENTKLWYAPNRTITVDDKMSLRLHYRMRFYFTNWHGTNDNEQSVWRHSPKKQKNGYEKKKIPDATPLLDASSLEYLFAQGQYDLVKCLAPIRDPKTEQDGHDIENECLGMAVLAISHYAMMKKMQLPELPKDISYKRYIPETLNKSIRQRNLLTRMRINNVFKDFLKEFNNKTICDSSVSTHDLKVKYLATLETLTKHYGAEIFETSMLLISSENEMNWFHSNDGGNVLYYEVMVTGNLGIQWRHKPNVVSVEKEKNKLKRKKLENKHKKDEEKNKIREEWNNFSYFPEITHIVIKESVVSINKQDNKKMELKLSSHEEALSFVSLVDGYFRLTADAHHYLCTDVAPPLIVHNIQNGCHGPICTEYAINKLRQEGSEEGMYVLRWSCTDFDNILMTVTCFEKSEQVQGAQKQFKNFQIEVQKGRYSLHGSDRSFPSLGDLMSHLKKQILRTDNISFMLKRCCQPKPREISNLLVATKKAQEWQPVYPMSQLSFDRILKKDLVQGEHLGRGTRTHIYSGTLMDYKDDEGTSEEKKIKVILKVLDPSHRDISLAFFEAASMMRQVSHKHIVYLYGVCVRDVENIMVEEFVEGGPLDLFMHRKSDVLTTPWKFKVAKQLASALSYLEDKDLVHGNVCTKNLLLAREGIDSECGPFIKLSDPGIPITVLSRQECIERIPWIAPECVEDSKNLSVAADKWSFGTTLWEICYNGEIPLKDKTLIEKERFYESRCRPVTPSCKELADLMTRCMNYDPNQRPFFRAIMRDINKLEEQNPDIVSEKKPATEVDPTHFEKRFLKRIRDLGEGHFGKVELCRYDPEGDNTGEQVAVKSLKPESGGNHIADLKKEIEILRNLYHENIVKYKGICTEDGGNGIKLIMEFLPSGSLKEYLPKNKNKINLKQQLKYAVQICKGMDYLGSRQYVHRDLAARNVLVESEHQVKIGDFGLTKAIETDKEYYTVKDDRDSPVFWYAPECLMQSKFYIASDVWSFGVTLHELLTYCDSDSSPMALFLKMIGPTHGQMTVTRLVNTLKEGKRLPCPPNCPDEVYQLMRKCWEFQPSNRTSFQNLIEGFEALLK

In the case of `O=S(=O)(N[C@H]1C[C@@H](N2CCOc3cnc4[nH]ccc4c32)C1)C1CN(C2CC2)C1` [Compound E, 1-Cyclopropyl-N-((cis)-3-(2,3-dihydropyrrolo[3′,2′:5,6]pyrido[3,4-b][1,4]oxazin-1(7H)-yl)cyclobutyl)azetidine-3-sulfonamide], the IC50 (Recombinant JAK1) is reported as 9 nM, the IC50 ([1]; TF-1, cellular assay IL6, read-out: Free IC50) is reported as 43 nM and the IC50 ([1]; TF-1 cells, IL-6 100 ng/ml, read-out: Cellular Assay: IC50 IL6) is reported as 9.9 nM. For the same compound, the logD (SF logD) was 2.1, the hFU [2] was 23% and the “Intr. Clear. rheps” value [3] was 40 microL/min/10 6 cells. For the same compound, the “Intr. Clear. mheps” value [4] was 28 microL/min/10 6 cells, the “iv PK minipig: ER” value [5] was 171% and the clearance ([5]; male, Göttingen, whole blood, read-out: iv PK minipig: Cl) was 48 mL/min/kg. For the same compound, the IC50 (CYP2D6) was 20 µM and the AMES [6] was “not considered to be mutagenic; also recorded: Neg/Neg”.

Reference: patent US12583868B2, “JAK inhibitors and methods for synthesizing and using thereof” (GALDERMA HOLDING SA, priority 2020, dated 2026)
